Experimental findings from ChEMBL document CHEMBL1124312, “Perfluoro-N-[4-(1H-tetrazol-5-ylmethyl)phenyl]alkanamides. A new class of oral antidiabetic agents” (J Med Chem, 1989) are described below.

Values joined by “and” are separate entries in the source; they are usually repeats but may differ in a detail not shown here. Equal values may be shown once.

One assay deals with Mus musculus. Put plainly: Activity of perorally administered compound at a dose of 20 mg/kg for 10 days against plasma glucose in diabetic mice. Type of assay: functional, organism-based. The arrangement: dose 20 mg/kg.
In turn, `O=C(Nc1ccc(Cc2nn[nH]n2)cc1)C(F)(F)C(F)(F)C(F)(F)F` came in with a Plasma glucose of 307 mg/dL.

Compound `CC1(COc2ccc(CC3SC(=O)NC3=O)cc2)CCCCC1` (stereo not drawn) showed a Plasma glucose of 320 mg/dL.

Turning to `O=C(Nc1ccc(Cc2nn[nH]n2)cc1)C(F)(F)C(F)(F)C(F)(F)C(F)(F)C(F)(F)C(F)(F)C(F)(F)F`, the Plasma glucose is 256 mg/dL.

The subject of the next assay is Mus musculus. Kind of assay: Activity of perorally administered compound at a dose of 75 mg/kg for 4 days against plasma glucose in obese mice. Set-up: dose 75 mg/kg. Type of assay: functional, organism-based.
The compound `O=C(Nc1ccc(Cc2nnn[nH]2)cc1)C(F)(F)C(F)(F)C(F)(F)C(F)(F)C(F)(F)C(F)(F)C(F)(F)C(F)(F)C(F)(F)F` came in with a Plasma glucose of 144 mg/dL.

In the case of `O=C(Nc1ccc(Cc2nnn[nH]2)cc1)C(F)(F)C(F)(F)C(F)(F)C(F)(F)C(F)(F)C(F)(F)C(F)(F)C(F)F`, the Plasma glucose stood at 93 mg/dL.

The compound `O=C(Nc1ccc(Cc2nn[nH]n2)cc1)C(F)(F)C(F)(F)C(F)(F)F` registered a Plasma glucose of 100 mg/dL.

In turn, `O=C(Nc1ccc(Cc2nnn[nH]2)cc1)C(F)(F)C(F)(F)C(F)(F)C(F)(F)C(F)(F)C(F)(F)C(F)(F)C(F)(F)C(F)(F)C(F)F` registered a Plasma glucose of 118 mg/dL.

As for `O=C(Nc1ccc(Cc2nnn[nH]2)cc1)C(F)(F)F`, the Plasma glucose was 138 mg/dL.

Compound `O=C(Nc1ccc(Cc2nnn[nH]2)cc1)C(F)(F)C(F)(F)C(F)(F)C(F)(F)C(F)(F)C(F)(F)F` registered a Plasma glucose of 162 mg/dL.

Compound `CC1(COc2ccc(CC3SC(=O)NC3=O)cc2)CCCCC1` (stereo not drawn) showed a Plasma glucose of 107 mg/dL.

As for `O=C(Nc1ccc(Cc2nn[nH]n2)cc1)C(F)(F)C(F)(F)C(F)(F)C(F)(F)C(F)(F)C(F)(F)C(F)(F)F`, the Plasma glucose worked out at 87 mg/dL.

The compound `O=C(Nc1ccc(Cc2nnn[nH]2)cc1)C(F)(F)C(F)(F)C(F)(F)C(F)(F)F` came in with a Plasma glucose of 170 mg/dL.

As for `O=C(Nc1ccc(Cc2nnn[nH]2)cc1)C(F)(F)C(F)(F)C(F)(F)C(F)(F)C(F)(F)C(F)(F)C(F)(F)C(F)(F)F`, the Plasma glucose turned out to be 106 mg/dL.

Turning to `O=C(Nc1ccc(Cc2nnn[nH]2)cc1)C(F)(F)C(F)(F)F`, the Plasma glucose is 120 mg/dL.

Another assay has as its system Mus musculus. Kind of assay: Activity of perorally administered compound at a dose of 75 mg/kg for 4 days against plasma insulin in diabetic mice. Type of assay: functional, organism-based. Set-up: dose 75 mg/kg.
Take `O=C(Nc1ccc(Cc2nnn[nH]2)cc1)C(F)(F)C(F)(F)C(F)(F)C(F)(F)C(F)(F)C(F)(F)C(F)(F)C(F)F`: the Plasma insulin came out at 34 µU/mL.

The compound `CC1(COc2ccc(CC3SC(=O)NC3=O)cc2)CCCCC1` (stereo not drawn) had a Plasma insulin of 25 µU/mL.

With `O=C(Nc1ccc(Cc2nn[nH]n2)cc1)C(F)(F)C(F)(F)C(F)(F)C(F)(F)C(F)(F)C(F)(F)C(F)(F)F`, the Plasma insulin worked out at 32 µU/mL.

For the next assay, the system named is Mus musculus. Put plainly: Activity of perorally administered compound at a dose of 20 mg/kg for 4 days against plasma glucose in obese mice. Format: functional, organism-based. The arrangement: dose 20 mg/kg.
In the case of `O=C(Nc1ccc(Cc2nnn[nH]2)cc1)C(F)(F)C(F)(F)C(F)(F)C(F)(F)C(F)(F)C(F)(F)C(F)(F)C(F)(F)C(F)(F)F`, the Plasma glucose came out at 133 mg/dL.

`CN(C(=O)C(F)(F)C(F)(F)C(F)(F)C(F)(F)C(F)(F)C(F)(F)C(F)(F)F)c1ccc(Cc2nnn(C)n2)cc1` came in with a Plasma glucose of 128 mg/dL.

`O=C(Nc1ccc(Cc2nnnn2Cc2ccccc2)cc1)C(F)(F)C(F)(F)C(F)(F)C(F)(F)C(F)(F)C(F)(F)C(F)(F)F`: the Plasma glucose is 152 mg/dL.

`O=C(Nc1ccc(Cc2nnn[nH]2)cc1)C(F)(F)C(F)(F)C(F)(F)C(F)(F)C(F)(F)C(F)(F)C(F)(F)C(F)F` displayed a Plasma glucose of 108 mg/dL.

As for `O=C(Nc1ccc(Cc2nn[nH]n2)cc1)C(F)(F)C(F)(F)C(F)(F)F`, the Plasma glucose turned out to be 213 mg/dL.

On to `O=C(Nc1ccc(Cc2nnn[nH]2)cc1)C(F)(F)C(F)(F)C(F)(F)C(F)(F)C(F)(F)C(F)(F)C(F)(F)C(F)(F)C(F)(F)C(F)F`, for which the Plasma glucose turned out to be 123 mg/dL.

Consider `O=C(Nc1ccc(Cc2nnn[nH]2)cc1)C(F)(F)F`, for which the Plasma glucose was 273 mg/dL.

`CN(C(=O)C(F)(F)C(F)(F)C(F)(F)C(F)(F)C(F)(F)C(F)(F)C(F)(F)F)c1ccc(Cc2nnnn2C)cc1` registered a Plasma glucose of 119 mg/dL.

Compound `O=C(Nc1ccc(Cc2nnn[nH]2)cc1)C(F)(F)C(F)(F)C(F)(F)C(F)(F)C(F)(F)C(F)(F)F` displayed a Plasma glucose of 231 mg/dL.

With `CC1(COc2ccc(CC3SC(=O)NC3=O)cc2)CCCCC1` (stereo not drawn), the Plasma glucose is 191 mg/dL.

`O=C(Nc1ccc(Cc2nn[nH]n2)cc1)C(F)(F)C(F)(F)C(F)(F)C(F)(F)C(F)(F)C(F)(F)C(F)(F)F`: the Plasma glucose is 111 mg/dL and 119 mg/dL.

The compound `O=C(Nc1ccc(Cc2nnn[nH]2)cc1)C(F)(F)C(F)(F)C(F)(F)C(F)(F)F` returned a Plasma glucose of 207 mg/dL.

Consider `O=C(Nc1ccc(Cc2nnn[nH]2)cc1)C(F)(F)C(F)(F)C(F)(F)C(F)(F)C(F)(F)C(F)(F)C(F)(F)C(F)(F)F`, for which the Plasma glucose was determined as 128 mg/dL.

Compound `O=C(Nc1ccc(Cc2nnn[nH]2)cc1)C(F)(F)C(F)(F)F` yielded a Plasma glucose of 198 mg/dL.

For `O=C(Nc1ccc(Cc2nnn(Cc3ccccc3)n2)cc1)C(F)(F)C(F)(F)C(F)(F)C(F)(F)C(F)(F)C(F)(F)C(F)(F)F`, the Plasma glucose was determined as 119 mg/dL.

A further assay concerns Mus musculus. Put plainly: Activity of perorally administered compound at a dose of 75 mg/kg for 4 days against plasma glucose in diabetic mice. Format: functional, organism-based. The arrangement: dose 75 mg/kg.
As to `O=C(Nc1ccc(Cc2nnn[nH]2)cc1)C(F)(F)C(F)(F)C(F)(F)C(F)(F)C(F)(F)C(F)(F)C(F)(F)C(F)F`, the Plasma glucose worked out at 124 mg/dL.

Compound `CC1(COc2ccc(CC3SC(=O)NC3=O)cc2)CCCCC1` (stereo not drawn) gave a Plasma glucose of 348 mg/dL.

Compound `O=C(Nc1ccc(Cc2nn[nH]n2)cc1)C(F)(F)C(F)(F)C(F)(F)C(F)(F)C(F)(F)C(F)(F)C(F)(F)F` had a Plasma glucose of 163 mg/dL.

The test system of another assay is Mus musculus. Kind of assay: Activity of perorally administered compound at a dose of 20 mg/kg for 4 days against plasma insulin in obese mice. Type of assay: functional, organism-based. The arrangement: dose 20 mg/kg.
`CN(C(=O)C(F)(F)C(F)(F)C(F)(F)C(F)(F)C(F)(F)C(F)(F)C(F)(F)F)c1ccc(Cc2nnn(C)n2)cc1` had a Plasma insulin of 205 µU/mL.

The compound `O=C(Nc1ccc(Cc2nnnn2Cc2ccccc2)cc1)C(F)(F)C(F)(F)C(F)(F)C(F)(F)C(F)(F)C(F)(F)C(F)(F)F` displayed a Plasma insulin of 249 µU/mL.

For `CN(C(=O)C(F)(F)C(F)(F)C(F)(F)C(F)(F)C(F)(F)C(F)(F)C(F)(F)F)c1ccc(Cc2nnnn2C)cc1`, the Plasma insulin worked out at 204 µU/mL.

`O=C(Nc1ccc(Cc2nn[nH]n2)cc1)C(F)(F)C(F)(F)C(F)(F)C(F)(F)C(F)(F)C(F)(F)C(F)(F)F` yielded a Plasma insulin of 140 µU/mL.

The compound `O=C(Nc1ccc(Cc2nnn(Cc3ccccc3)n2)cc1)C(F)(F)C(F)(F)C(F)(F)C(F)(F)C(F)(F)C(F)(F)C(F)(F)F` gave a Plasma insulin of 204 µU/mL.

The next assay relates to Mus musculus. Kind of assay: Activity of perorally administered compound at a dose of 20 mg/kg for 10 days against plasma insulin in diabetic mice. Set-up: dose 20 mg/kg. Format: functional, organism-based.
Consider `O=C(Nc1ccc(Cc2nn[nH]n2)cc1)C(F)(F)C(F)(F)C(F)(F)F`, for which the Plasma insulin amounted to 19 µU/mL.

In turn, `CC1(COc2ccc(CC3SC(=O)NC3=O)cc2)CCCCC1` (stereo not drawn) yielded a Plasma insulin of 20 µU/mL.

The compound `O=C(Nc1ccc(Cc2nn[nH]n2)cc1)C(F)(F)C(F)(F)C(F)(F)C(F)(F)C(F)(F)C(F)(F)C(F)(F)F` came in with a Plasma insulin of 14 µU/mL.
